Reference: patent publication US10130605B2, “Compositions for use in treating inflammatory bowel diseases and intestinal colitis” (TaiRx Inc., priority 2017, dated 2018)
“Also recorded” adds a separate entry of the source.

Key:
Type in all cases: in vivo
DSS-induced colitis mice [1] = experiment: DSS-induced acute colitis in mouse: body weight, colon length, colon weight, general condition; settings: for Colon length / Colon weight / Colon-to-BW ratio: colon-to-body weight ratio / BW: body weight on the day of sacrifice: sacrifice day 5; for Colon length / Colon weight / Colon-to-BW ratio: colon-to-body weight ratio: geometric mean ± SEM; for BW: body weight on the day of sacrifice: mean ± SEM, n=8
Protocol: (§1) Induction of acute colitis. Acute colitis was induced by giving mice with 2.5% DSS (MP Biomedicals) in a drinking water for 5 consecutive days. The DSS administration was taken place in two separate days; where the mice were divided into two groups based on their body weight before the day of the DSS administration.
(§2) Route of drug administration.
(§3) Treatment doses. Diacerein was administered at 2 dose levels of 30 and 60 mg/kg, once daily for 5 days.
(§4) Animals. Eight-week-old female C57BL/6 mice were obtained from Japan SLC, Inc. (Japan). All animals used in the study were housed and cared in accordance with the Japanese Pharmacological Society Guidelines for Animal Use.
The average body weight of mice is about 18-22 grams.
The viability, clinical signs and behavior were monitored daily. Body weight was recorded before the treatment. […] Mice were sacrificed by exsanguinations through direct cardiac puncture under isoflurane anesthesia (Pfizer Inc.). Colon length and weight were measured from the end of the cecum to the anus.
(§5) The pharmacological effects of aloe-emodin, emodin, and rhein were also respectively tested using the same protocol described above.

DSS-induced colitis mice [2] = experiment: DSS-induced acute colitis in mouse: histological analysis of HE-stained colon sections; settings: for loss/damage of crypt and epithelium in colon sections vs DSS-induced vehicle group: FIGS. 5B-C, same protocol, dose not given; for loss of crypt and epithelium in HE-stained colon sections vs Vehicle group: FIG. 5A
Protocol: as §1, §2, §3, §4
Histological analyses. For HE staining, sections were cut from paraffin blocks of colon tissue prefixed in 10% neutral buffered formalin (Wako Pure Chemical Industries, Japan) and stained with Lillie-Mayer's Hematoxylin (Muto Pure Chemicals Co., Ltd., Japan) and eosin solution (Wako Pure Chemical Industries). Representative photos of the changes observed were captured from each group.
as §5

DSS-induced colitis mice [3] = experiment: DSS-induced acute colitis in mouse: disease activity index (DAI) score; settings: for DAI: Diacerein 30 and 60 mg/kg; for decrease in fecal blood score than the DSS-induced vehicle group: not statistically significant
Protocol: as §1, §2, §3, §4
Measurement of disease activity index score. A disease activity index (DAI) was calculated daily by summation of the following parameters: • (i) Weight loss (0=no weight loss; 1=1-5% weight loss; 2=6-10% weight loss; 3=11-15% weight loss; and 4=>15% weight loss); • (ii) Occult blood positivity (0=no bleeding; 1=occult blood test (+); 2=occult blood test (++); 3=occult blood test (+++); and 4=gross bleeding from the anus); and • (iii) Stool consistency (0=normal stools; 2=loose stools; 4=diarrhea).
as §5

DSS-induced colitis mice [4] = experiment: DSS-induced acute colitis in mouse: macroscopic scoring of colon tissue (colonic damage score); settings: for colonic damage score / diarrhea score / thickness score / ulceration score: sacrifice day 5
Protocol: as §1, §2, §3, §4
Macroscopic scoring of colon tissue. Colonic damage was scored using the published criteria of measurement (Wallace et al, Gastroenterology, 1992, 102, 18-27). […]

[5] = summary b147-b150, same protocol, dose not given
[6] = summary b148-b149, same protocol, dose not given
[7] = Diacerein 30 mg/kg PO QD day 0-4
[8] = Diacerein 60 mg/kg PO QD day 0-4
[9] = summary b149-b150, same protocol, dose not given
[10] = Mesalazine 20 mg/kg PO QD day 0-4
[11] = Mesalazine 100 mg/kg PO QD day 0-4
[12] = Mesalazine 100 mg/kg, Day 2 and 3
[13] = Mesalazine, dose not given, Day 2 and 3
[14] = both Mesalazine groups (20 and 100 mg/kg), Day 5

Compound: O=C1c2cccc(O)c2C(=O)c2c(O)cc(CO)cc21 [Aloe-emodin, 1,8-Dihydroxy-3-(hydroxymethyl)anthraquinone]
- colon-to-body weight ratio vs DSS-induced vehicle group (in words) (DSS-induced colitis mice [1]; same protocol, dose not given): significant improvement in the colon-to-body weight ratio
- prevention of the body weight loss by DSS-induction (in words) (DSS-induced colitis mice [1]; same protocol, dose not given): able to prevent the body weight loss
- loss/damage of crypt and epithelium in colon sections vs DSS-induced vehicle group (DSS-induced colitis mice [2]): less loss of crypt and epithelium; also recorded: clearly reduced
- DAI results (in words) (DSS-induced colitis mice [3]; same protocol, dose not given): effective
- body weight score (in words) (DSS-induced colitis mice [3]; [5]): significant effects on reducing the body weight score
- fecal blood score (in words) (DSS-induced colitis mice [3]; [6]): significant effects on reducing the fecal blood score

Compound: CC(=O)Oc1cccc2c1C(=O)c1c(OC(C)=O)cc(C(=O)O)cc1C2=O [Diacerein, 1,8-Diacetoxy-3-carboxyanthraquinone]
- Colon length (DSS-induced colitis mice [1]; [7]): 5.6 ± 0.2 cm
- Colon weight (DSS-induced colitis mice [1]; [7]): 211 ± 10 mg
- Colon-to-BW ratio: colon-to-body weight ratio (DSS-induced colitis mice [1]; [7]): 1.2 ± 0.1%
- BW: body weight on the day of sacrifice (DSS-induced colitis mice [1]; [7]): 17.8 ± 0.1 g
- Colon length (DSS-induced colitis mice [1]; [8]): 5.4 ± 0.3 cm
- Colon weight (DSS-induced colitis mice [1]; [8]): 211 ± 0.1 mg
- Colon-to-BW ratio: colon-to-body weight ratio (DSS-induced colitis mice [1]; [8]): 1.2 ± 0.1%
- BW: body weight on the day of sacrifice (DSS-induced colitis mice [1]; [8]): 17.8 ± 0.3 g
- body weight changes (in words) (DSS-induced colitis mice [1]; Diacerein groups (30 and 60 mg/kg PO QD), 5-day treatment): maintain the body weights close to the Sham animals
- increase in body weight on the day of sacrifice than the DSS-induced vehicle group (DSS-induced colitis mice [1]; both Diacerein groups (30 and 60 mg/kg PO QD), significant): 6.6%
- loss of crypt and epithelium in HE-stained colon sections vs Vehicle group (DSS-induced colitis mice [2]; Diacerein treatment groups (30 and 60 mg/kg)): less loss of crypt and epithelium
- fecal blood score vs Vehicle group (in words) (DSS-induced colitis mice [3]; Diacerein 30 mg/kg, during the treatment): decreased slight fecal blood
- fecal blood score vs Vehicle group (in words) (DSS-induced colitis mice [3]; Diacerein 60 mg/kg, during the treatment): more significant reduction
- DAI (DSS-induced colitis mice [3]; Day 4 (vehicle 6.4)): ~5.1
- DAI (DSS-induced colitis mice [3]; Day 5 (vehicle 7.1)): ~6.3
- body weight score (DSS-induced colitis mice [3]; Diacerein treatment groups (30 and 60 mg/kg), Day 4, p<0.05 (vehicle 1.0)): 0.1-0.3
- body weight score (DSS-induced colitis mice [3]; Diacerein treatment groups (30 and 60 mg/kg), Day 5 (vehicle 1.1)): 0.6-0.9
- decrease in fecal blood score than the DSS-induced vehicle group (DSS-induced colitis mice [3]; both Diacerein groups (30 and 60 mg/kg), Day 5): 11.4%
- colonic damage score (DSS-induced colitis mice [4]; [7]): 4.1 ± 0.1
- diarrhea score (DSS-induced colitis mice [4]; [7]): 1.0 ± 0.0
- thickness score (DSS-induced colitis mice [4]; [7]): 1.0 ± 0.0
- ulceration score (DSS-induced colitis mice [4]; [7]): 2.1 ± 0.1
- decrease in colonic damage score than the DSS-induced vehicle group (DSS-induced colitis mice [4]; Diacerein 30 mg/kg, not statistically significant): 6.8%
- diarrhea score vs DSS-induced vehicle group (in words) (DSS-induced colitis mice [4]; Diacerein 60 mg/kg): lower effect on diarrhea score than the DSS-induced vehicle group, but the observed effect was not statistically significant
- colonic damage score (DSS-induced colitis mice [4]; [8]): 3.8 ± 0.1
- thickness score (DSS-induced colitis mice [4]; [8]): 0.9 ± 0.0
- ulceration score (DSS-induced colitis mice [4]; [8]): 2.0 ± 0.0
- decrease in colonic damage score than the DSS-induced vehicle group (DSS-induced colitis mice [4]; Diacerein 60 mg/kg, significant, p<0.05): 13.6%

Compound: Cc1cc(O)c2c(c1)C(=O)c1cc(O)cc(O)c1C2=O [Emodin, 1,3,8-Trihydroxy-6-methyl-9,10-anthracenedione]
- colon weight vs DSS-induced vehicle group (in words) (DSS-induced colitis mice [1]; same protocol, dose not given): significant improvement in colon weight
- colon-to-body weight ratio vs DSS-induced vehicle group (in words) (DSS-induced colitis mice [1]; same protocol, dose not given): significant reduction in the colon-to-body weight ratio
- prevention of the body weight loss by DSS-induction (in words) (DSS-induced colitis mice [1]; same protocol, dose not given): able to prevent the body weight loss
- DAI results (in words) (DSS-induced colitis mice [3]; same protocol, dose not given): effective
- body weight score (in words) (DSS-induced colitis mice [3]; [5]): significant effects on reducing
- fecal blood score (in words) (DSS-induced colitis mice [3]; [6]): significant effects on reducing
- diarrheal stool score (in words) (DSS-induced colitis mice [3]; [9]): significant effects on reducing

Compound: Nc1ccc(O)c(C(=O)O)c1 [Mesalazine, 5-Amino-2-hydroxybenzoic acid]
- colon weight vs DSS-induced vehicle group (in words) (DSS-induced colitis mice [1]; Mesalazine 20 mg/kg): significant improvement in colon weight
- Colon length (DSS-induced colitis mice [1]; [10]): 5.0 ± 0.2 cm
- Colon weight (DSS-induced colitis mice [1]; [10]): 202 ± 6 mg
- Colon length (DSS-induced colitis mice [1]; [11]): 5.3 ± 0.3 cm
- Colon weight (DSS-induced colitis mice [1]; [11]): 202 ± 8 mg
- colon weight vs DSS-induced vehicle group (in words) (DSS-induced colitis mice [1]; Mesalazine (60 mg/kg)): lower effect on colon weight than the DSS-induced vehicle group
- prevention of the body weight loss by DSS-induction (in words) (DSS-induced colitis mice [1]; Mesalazine (60 mg/kg)): able to prevent the body weight loss
- improvement in colon length than the DSS-induced vehicle group (DSS-induced colitis mice [1]; both Mesalazine groups (20 and 100 mg/kg PO QD), not statistically significant): 3-9%
- loss of crypt and epithelium in HE-stained colon sections vs Vehicle group (DSS-induced colitis mice [2]; Mesalazine treatment alone (20 and 100 mg/kg)): No significant effect
- loss/damage of crypt and epithelium in colon sections vs DSS-induced vehicle group (DSS-induced colitis mice [2]): less loss of crypt and epithelium
- crypt and epithelium damages induced by DSS, microscopic examination of colon sections (DSS-induced colitis mice [2]; Mesalazine treatments (20 and 60 mg/kg)): clearly reduced
- fecal blood score vs Vehicle group (in words) (DSS-induced colitis mice [3]; Mesalazine 20 mg/kg, only at Day 1): significant reduction
- effect on DAI (in words) (DSS-induced colitis mice [3]; Mesalazine 20 mg/kg, throughout 5-day treatment): no effect
- fecal blood score vs Vehicle group (in words) (DSS-induced colitis mice [3]; Mesalazine 100 mg/kg, Day 1 to 3): significant reduction
- Diarrheal stool score vs Vehicle group (in words) (DSS-induced colitis mice [3]; [12]): significant reduction
- effect on DAI (in words) (DSS-induced colitis mice [3]; [12]): significant reduction
- effect on DAI (in words) (DSS-induced colitis mice [3]; Mesalazine 100 mg/kg, Day 4 or Day 5): no clear reduction in DAI
- DAI results (in words) (DSS-induced colitis mice [3]; Mesalazine (60 mg/kg)): effective
- body weight score (in words) (DSS-induced colitis mice [3]; Mesalazine (60 mg/kg)): significant effects on reducing the body weight score
- diarrheal stool score (in words) (DSS-induced colitis mice [3]; [13]): significantly decreased
- fecal blood score (in words) (DSS-induced colitis mice [3]; [13]): significantly decreased
- body weight score (DSS-induced colitis mice [3]; both Mesalazine groups (20 and 100 mg/kg), Day 4): 1.0-1.3
- body weight score (DSS-induced colitis mice [3]; [14]): 1.6-1.9
- decrease in fecal blood score than the DSS-induced vehicle group (DSS-induced colitis mice [3]; [14]): 11.4%
- diarrhea score vs DSS-induced vehicle group (in words) (DSS-induced colitis mice [4]; Mesalazine 20 mg/kg): significant decrease in diarrhea score
- colonic damage score (DSS-induced colitis mice [4]; [10]): 3.5 ± 0.2
- thickness score (DSS-induced colitis mice [4]; [10]): 1.0 ± 0.0
- ulceration score (DSS-induced colitis mice [4]; [10]): 2.0 ± 0.0
- decrease in colonic damage score than the DSS-induced vehicle group (DSS-induced colitis mice [4]; Mesalazine 20 mg/kg, significant, p<0.05): 20.5%
- colonic damage score (DSS-induced colitis mice [4]; [11]): 4.0 ± 0.0
- diarrhea score (DSS-induced colitis mice [4]; [11]): 1.0 ± 0.0
- thickness score (DSS-induced colitis mice [4]; [11]): 1.0 ± 0.0
- ulceration score (DSS-induced colitis mice [4]; [11]): 2.0 ± 0.0
- decrease in colonic damage score than the DSS-induced vehicle group (DSS-induced colitis mice [4]; Mesalazine 100 mg/kg, not statistically significant): 9.1%

Compound: O=C(O)c1cc(O)c2c(c1)C(=O)c1cccc(O)c1C2=O [Rhein, 4,5-Dihydroxyanthraquinone-2-carboxylic acid]
- colon weight vs DSS-induced vehicle group (in words) (DSS-induced colitis mice [1]; same protocol, dose not given): significant improvement in colon weight
- colon-to-body weight ratio vs DSS-induced vehicle group (in words) (DSS-induced colitis mice [1]; same protocol, dose not given): significant reduction in the colon-to-body weight ratio
- prevention of the body weight loss by DSS-induction (in words) (DSS-induced colitis mice [1]; same protocol, dose not given): able to prevent the body weight loss
- loss/damage of crypt and epithelium in colon sections vs DSS-induced vehicle group (DSS-induced colitis mice [2]): less loss of crypt and epithelium; also recorded: clearly reduced
- DAI results (in words) (DSS-induced colitis mice [3]; same protocol, dose not given): effective
- body weight score (in words) (DSS-induced colitis mice [3]; [5]): significant effects on reducing the body weight score
- diarrheal stool score (in words) (DSS-induced colitis mice [3]; [9]): significant effects on reducing the diarrheal stool score
